Data: patent US12365651B2, “Use of pirfenidone and derivatives for modulation of B lymphocyte activity and organ protection from acute tissue damage” (Washington University, priority 2017, dated 2025)
Values joined by “and” are separate entries in the source; they are usually repeats but may differ in a detail not shown here. Identical values can stand only once.

How the values were obtained:
[1] = tested on: naïve WT hearts; test: Flow cytometry of naïve WT hearts after Pirfenidone for 1 week; format: in vivo, mouse; settings: Pirfenidone 1 week
From the text: Accordingly, we performed FACS analysis 4 days after DT injection.
In order to administer Pirfenidone, mice were fed powdered chow mixed with Pirfenidone (eNovation Chemicals, Bridgewater, NJ, USA, Cat #D404655) at 0.5% in weight or powdered chow alone. […] Unless specifically noted, mice were switched to a diet enriched with Pirfenidone 3 days prior to DT-induced injury or I/R-injury, and maintained on this diet throughout the duration of the experiments. In parallel studies, we fed mice normal chow prior to I/R injury and then administered Pirfenidone acutely at the time of cardiac injury. For these latter studies, mice were injected i.p. with diluent (200 μL phosphate-buffered solution [PBS]) or i.p. with Pirfenidone (200 μL of Pirfenidone [5 mg/mL] in PBS) after reperfusion and the morning after I/R injury (2 injections total). They were switched to Pirfenidone-enriched diet or control diet the evening of I/R injury and maintained on the same diet until completion of the experiment.
For flow cytometry experiments, mice were euthanized in a CO2 chamber and the hearts were perfused with cold PBS, carefully dissected from extracardiac tissue under a stereo microscope, finely minced, suspended in 3 ml of DMEM, and then digested with 120 U of DNAse (Sigma), 180 U of hyaluronidase (Sigma) and 1350 U of Collagenase (Sigma) for 60 minutes at 37Co. The digested material was filtered through 40 μm filters and pelleted by centrifugation (250×g for 3 minutes at 4° C.) in HBSS supplemented with 2% FCS+0.2% bovine serum albumin (BSA). Red blood cells were lysed in ACK lysis buffer (Invitrogen) for 15′ on ice and the remaining cells were resuspended in 300 μL of FACS buffer (PBS with 2% FCS and 2 mM EDTA). Cultured cells were collected for FACS analysis as described above and resuspended in 300 μL of FACS buffer. Samples were labeled with the fluorescently conjugated antibodies outlined in the table below. Cells were stained for 45 minutes on ice, and washed in FACS buffer prior to analysis. All antibodies from Biolegend were used at 0.2 μL per 300 μL sample, while antibodies from BD biosciences were used at 0.4 μL per 300 μL sample. FACS was performed on Beckton Dickinson analyzers (LSRII, Canto, X20 or Fortessa). Compensation controls were generated using UltraComp ebeads (Invitrogen, Carlsbad, CA, USA) and verified on single color control samples obtained staining primary splenocytes. For flow cytometry experiments that involved the DT injury model, we collected serum at the time of terminal sacrifice for quantification of troponin. […] Cell sorting was performed using a FACSAria sorting instrument (Beckton Dickinson) at the Washington University Department of Pathology Flow Cytometry and Sorting Core.

[2] = Plasma pharmacokinetics after IV or PO administration; format: in vivo, SD Rat; settings: SD Rat
Procedure: Pirfenidone and Pegyonde-6 were administered at equimolar concentrations to rats IV or per os (PO) and serum concentrations measured at different time points to measure pharmacokinetic parameters. The drugs were solubilized in 5% Alcohol+20% PEG 300 in saline.

[3] = IV 40 mg/kg, individual rats 1-3, 40 mg/kg
[4] = PO 40 mg/kg, individual rats 7-9, 40 mg/kg

With Cc1ccc(=O)n(-c2ccccc2)c1 [Pirfenidone, 5 methyl-1-phenyl-2-[H] pyridone] the “number of CD45+ cells/mg tissue” value ([1]; p=0.53) was “no significant effect”, the “Ly6C+CD64 low/− monocytes” value ([1]; p=0.81) was “no significant effect” and the “CD64+Ly6Clow/− macrophages” value ([1]; p=0.82) was “no significant effect”. For the same compound, the “Ly6G+ neutrophils” value ([1]; p=0.82) was “no significant effect”, the “CD19+ B-lymphocytes” value ([1]; p=0.94) was “no significant effect” and the “AUMC0-t, Mean” value ([2]; IV 40 mg/kg) was 11482 h*h*ng/mL. The “AUMC0-∞, Mean” value ([2]; IV 40 mg/kg) was 11490 h*h*ng/mL, the “CL(/F), Mean” value ([2]; IV 40 mg/kg) was 28.87 mL/min/kg and the “Vss (/F), Mean” value ([2]; IV 40 mg/kg) was 0.828 L/kg. The “Plasma concentrations of Pirfenidone” value ([2]; IV 40 mg/kg, 0.083 h, individual rats 1-3, 40 mg/kg) was 34700 ng/mL and 33600 ng/mL, the “Plasma concentrations of Pirfenidone” value ([2]; IV 40 mg/kg, 0.25 h, individual rats 1-3, 40 mg/kg) was 29300 ng/mL and 25600 ng/mL and the “Plasma concentrations of Pirfenidone” value ([2]; IV 40 mg/kg, 0.5 h, individual rats 1-3, 40 mg/kg) was 19800 ng/mL and 16100 ng/mL. For the same compound, the “Plasma concentrations of Pirfenidone” value ([2]; IV 40 mg/kg, 1 h, individual rats 1-3, 40 mg/kg) was 6130 ng/mL and 9860 ng/mL and 4840 ng/mL, the “Plasma concentrations of Pirfenidone” value ([2]; IV 40 mg/kg, 2 h, individual rats 1-3, 40 mg/kg) was 394 ng/mL and 712 ng/mL and 225 ng/mL and the “Plasma concentrations of Pirfenidone” value ([2]; IV 40 mg/kg, 4 h, individual rats 1-3, 40 mg/kg) was 6.12 ng/mL and 3.57 ng/mL. For the same compound, the “Plasma concentrations of Pirfenidone” value ([2]; IV 40 mg/kg, 8 h, individual rats 1-3, 40 mg/kg) was “BLOQ (Below lower limit of quantification (1 ng/mL))”, the “Plasma concentrations of Pirfenidone” value ([2]; IV 40 mg/kg, 24 h, individual rats 1-3) was “BLOQ (Below lower limit of quantification (1 ng/mL))” and the AUC0-t [2, 3] was 27907 ng·h/mL and 21142 ng·h/mL. The “AUC0-∞” value [2, 3] was 27910 ng·h/mL and 21144 ng·h/mL, the AUMC0-t [2, 3] was 10270 h*h*ng/mL and 15155 h*h*ng/mL and 9021 h*h*ng/mL and the “AUMC0-∞” value [2, 3] was 10277.2 h*h*ng/mL and 15166.3 h*h*ng/mL and 9027.6 h*h*ng/mL. For the same compound, the “CL(/F)” value [2, 3] was 31.17 mL/min/kg and 23.88 mL/min/kg and 31.53 mL/min/kg, the Cmax [2, 3] was 34700 ng/mL and 33600 ng/mL and the MRTINF [2, 3] was 32.6 min and 25.6 min. The T1/2 [2, 3] was 17 min and 17.3 min, the “Vss (/F)” value [2, 3] was 0.898 L/kg and 0.779 L/kg and 0.808 L/kg and the “AUMC0-∞, Mean” value ([2]; PO 40 mg/kg) was 15669 h*h*ng/mL. For the same compound, the “Plasma concentrations of Pirfenidone” value ([2]; PO 40 mg/kg, 0.25 h, individual rats 7-9, 40 mg/kg) was 8330 ng/mL and 9540 ng/mL, the “Plasma concentrations of Pirfenidone” value ([2]; PO 40 mg/kg, 0.5 h, individual rats 7-9, 40 mg/kg) was 6700 ng/mL and 8820 ng/mL and the “Plasma concentrations of Pirfenidone” value ([2]; PO 40 mg/kg, 1 h, individual rats 7-9, 40 mg/kg) was 3540 ng/mL and 3570 ng/mL. For the same compound, the “Plasma concentrations of Pirfenidone” value ([2]; PO 40 mg/kg, 2 h, individual rats 7-9, 40 mg/kg) was 2000 ng/mL and 2140 ng/mL, the “Plasma concentrations of Pirfenidone” value ([2]; PO 40 mg/kg, 4 h, individual rats 7-9, 40 mg/kg) was 7.72 ng/mL and 830 ng/mL and 126 ng/mL and the “Plasma concentrations of Pirfenidone” value ([2]; PO 40 mg/kg, 24 h, individual rats 7-9) was “BLOQ (Below lower limit of quantification (1 ng/mL))”. For the same compound, the AUC0-t [2, 4] was 12787 ng·h/mL and 12172 ng·h/mL, the “AUC0-∞” value [2, 4] was 12820 ng·h/mL and 12353 ng·h/mL and the AUMC0-t [2, 4] was 9588 h*h*ng/mL and 20769 h*h*ng/mL and 14572 h*h*ng/mL. The “AUMC0-∞” value [2, 4] was 9604 h*h*ng/mL and 21076 h*h*ng/mL and 16326 h*h*ng/mL, the Cmax [2, 4] was 8330 ng/mL and 9540 ng/mL and the MRTINF [2, 4] was 98.64 min and 79.32 min. For the same compound, the T1/2 [2, 4] was 18.8 min and 57.5 min and 70.38 min, the Tmax ([2]; Sprague-Dawley, plasma, IV 40 mg/kg, read-out: Tmax, Mean) was 4.98 min and the concentration at 0.083 h ([2]; Sprague-Dawley, rat, plasma, iv, 40 mg/kg, IV 40 mg/kg, 0.083 h, individual rats 1-3, read-out: Plasma concentrations of Pirfenidone) was 32900 ng/mL.
